# ChEMBL document CHEMBL1132851, “Synthesis of the repeating unit of the O-specific polysaccharide of Shigella sonnei and quantitation of its serologic activity” (Bioorg Med Chem Lett, 2000)
# System: Shigella sonnei
# Experiment: Compound was evaluated for the inhibition of hemolysis of Shigella sonneili polysaccharide-sensitized erythrocyte using a hyper-immune rabbit serum
# Format: functional, organism-based
row,SMILES,IC50 [mM]
1,CO[C@@H]1OC(C(=O)O)[C@H](O)C(O)[C@@H]1NC(C)=O (stereo partly drawn),6.9
2,CO[C@@H]1OC(C)[C@H](N)C(O)[C@@H]1NC(C)=O (stereo partly drawn),9.8
3,CO[C@@H]1OC(C(=O)O)[C@H](O[C@@H]2OC(C)[C@H](N)C(O)[C@@H]2NC(C)=O)C(O)[C@@H]1NC(C)=O (stereo partly drawn),3.9
